Holding throughout (format): in vivo, human
A short description of experiment [1]: Example 1: clinical study combining semaglutide (injection) and fasting (HMT/HNT), Patient 1. The text has this: Patient 1 was subject to a combination HMT/HNT treatment protocol as described below.
A short description of experiment [2]: Example 2: semaglutide (injection) and 15-hour fasting. To be noted: weeks 1-4: .25/.50/.50/1 mg, without exercise or caloric restriction. The source says:
Patients are subject to a combination HMT/HNT treatment protocol as described in Table 6 below. […] [table]

Experiment [3] in a line: Example 3: semaglutide (oral) and 18-hour fasting. To be noted: weeks 1-4: .25/.50/.50/1 mg, without exercise or caloric restriction. The source says: Patients are subject to a combination HMT/HNT treatment protocol as described in Table 7 below. […] [table]
A short description of experiment [4]: Example 4: semaglutide (oral) and One-Meal-A-Day. As to conditions: One-Meal-A-Day; weeks 1-4: 1/2/3.5/5 mg; without exercise or caloric restriction. The text has this:
Patients are subject to a combination HMT/HNT treatment protocol as described in Table 8 below. […] [table]

Experiment [5] in a line: Example 5: semaglutide (oral) and 15-hour fasting. As to conditions: weeks 1-4: 1/2/3.5/5 mg, without exercise or caloric restriction. The text has this: Patients are subject to a combination HMT/HNT treatment protocol as described in Table 9 below. […] [table]
Experiment [6] can be described thus: Example 6: semaglutide (oral) and 18-hour fasting. As to conditions: weeks 1-4: 1/2/3.5/5 mg, without exercise or caloric restriction. The source says: Patients are subject to a combination HMT/HNT treatment protocol as described in Table 10 below. […] [table]
Experiment [7] is described as follows: Example 13: dulaglutide and One-Meal-A-Day. To be noted: One-Meal-A-Day; weeks 1-4: 0.2/0.375/0.375/0.6 mg; without exercise or caloric restriction. The text has this:
Patients are subject to a combination HMT/HNT treatment protocol as described in Table 17 below. […] [table]

The nature of experiment [8]: Example 14: dulaglutide and 15-hour fasting. As to conditions: weeks 1-4: 0.2/0.375/0.375/0.6 mg, without exercise or caloric restriction. The text has this:
Patients are subject to a combination HMT/HNT treatment protocol as described in Table 18 below. […] [table]

Experiment [9] is described as follows: Example 15: dulaglutide and 18-hour fasting. As to conditions: weeks 1-4: 0.2/0.375/0.375/0.6 mg, without exercise or caloric restriction. The source says: Patients are subject to a combination HMT/HNT treatment protocol as described in Table 19 below. […] [table]
Experiment [10] can be described thus: Example 16: liraglutide and One-Meal-A-Day. As to conditions: One-Meal-A-Day; weeks 1-4: 0.75/1.5/1.5/2.25 mg; without exercise or caloric restriction. The text has this:
Patients are subject to a combination HMT/HNT treatment protocol as described in Table 20 below. […] [table]

Experiment [11] in a line: Example 17: liraglutide and 15-hour fasting. As to conditions: weeks 1-4: 0.75/1.5/2.25/2.25 mg, without exercise or caloric restriction. The text has this: Patients are subject to a combination HMT/HNT treatment protocol as described in Table 21 below. […] [table]
A short description of experiment [12]: Example 18: liraglutide and 18-hour fasting. As to conditions: weeks 1-4: 0.75/1.5/1.5/2.25 mg, without exercise or caloric restriction. The text has this:
Patients are subject to a combination HMT/HNT treatment protocol as described in Table 22 below. […] [table]

For Semaglutide, the Weight lost in experiment [1] (in 30 days, combination HMT/HNT) was 30 pounds. Besides, the Bodyweight reduction in experiment [1] (starting weight 282 lbs, 30 days, weeks 1-4: .25/.50/.50/1 mg, One-Meal-A-Day) is −30 lbs. Besides, the “Therapeutic effects (e.g. weight loss)” value in experiment [2] is given as “Desirable therapeutics effects (e.g. weigh loss) are achieved”.
On to Semaglutide [Semaglutide (oral)], for which the “Therapeutic effects (e.g. weight loss)” value in experiment [3], in [4], in experiment [5] and in [6] was “Desirable therapeutics effects (e.g. weigh loss) are achieved” in each case.
Consider Dulaglutide, for which the “Therapeutic effects (e.g. weight loss)” value in [7], in experiment [8] and in experiment [9] was “Desirable therapeutics effects (e.g. weigh loss) are achieved” each time.
For the molecule `CCCCCCCCCCCCCCCC(=O)N[C@@H](CCC(=O)NCCCC[C@H](NC(=O)[C@H](C)NC(=O)[C@H](C)NC(=O)[C@H](CCC(N)=O)NC(=O)CNC(=O)[C@H](CCC(=O)O)NC(=O)[C@H](CC(C)C)NC(=O)[C@H](Cc1ccc(O)cc1)NC(=O)[C@H](CO)NC(=O)[C@H](CO)NC(=O)[C@@H](NC(=O)[C@H](CC(=O)O)NC(=O)[C@H](CO)NC(=O)[C@@H](NC(=O)[C@H](Cc1ccccc1)NC(=O)[C@@H](NC(=O)CNC(=O)[C@H](CCC(=O)O)NC(=O)[C@H](C)NC(=O)[C@@H](N)Cc1cnc[nH]1)[C@@H](C)O)[C@@H](C)O)C(C)C)C(=O)N[C@@H](CCC(=O)O)C(=O)N[C@@H](Cc1ccccc1)C(=O)N[C@H](C(=O)N[C@@H](C)C(=O)N[C@@H](Cc1c[nH]c2ccccc12)C(=O)N[C@@H](CC(C)C)C(=O)N[C@H](C(=O)N[C@@H](CCCNC(=N)N)C(=O)NCC(=O)N[C@@H](CCCNC(=N)N)C(=O)NCC(=O)O)C(C)C)[C@@H](C)CC)C(=O)O` [Liraglutide], the “Therapeutic effects (e.g. weight loss)” value in experiment [10], in [11] and in experiment [12] was “Desirable therapeutics effects (e.g. weigh loss) are achieved” each time.

These data come from US20230374096A1, “OBESITY TREATMENT AND PREVENTION METHODS” (Vault Bioventures, Inc., priority 2022, published 2023).
